These results are taken from patent US6159988A, “Arylcycloalkyl derivatives, their production and their use” (Hoeschst Aktiengesellschaft, priority 1992, dated 2000).

One assay has as its system IL-1. Kind of assay: IL-1 release inhibition (Table 2). In kind it is cell-based, human. On the procedure: 10 ml of human blood were carefully drawn from the antecubital vein using a syringe containing 1 ml of a solution of 3.8% sodium citrate. After dilution with 10 ml PM 16 (Serva, Heidelberg, FRG) and underlayering with 15 ml Lymphoprep® (Molter GmbH), the sample was centrifuged at 400×g for 40 min at 20° C. The mononuclear cells forming a white ring between lymphoprep and plasma were carefully aspirated by a syringe, diluted 1:1 with PM 16 and centrifuged again at 400×g for 10 min. […] was washed with 10 ml RPMI 1640 (Gibco, Berlin, FRG), containing additionally 300 mg/l L-glutamine, 25 mmol/l […] HEPES, 100 μg/ml streptomycin and 100 μg/ml penicillin. Finally, using a Coulter counter IT, the cell suspension was adjusted to 5×10^6 cells/ml. The cells consist of approx. 90% lymphocytes and 10% monocytes.
10 μl DMSO/water (1:10, v/v), containing the test compound, was added to 480 μl of a suspension, containing 5×10^6 mononuclear cells. The synthesis of IL-1 was stimulated by the addition of 10 μl DSMO/water (1:10, v/v), containing 0,5 μg LPS (Salmonella abortus equi, Sigma). After incubation at 37° C. for 18 hours, the samples were cooled to 0° C. and centrifuged for 1 min. in a table centrifuge. 25 μl aliquots of the supernatant were assayed for IL-1 alpha activity using a commercially available 125-J-IL-1-alpha radioimmunoassay Kit (Amersham/UK), and for IL-1 beta in a similar way using the specific test kit. Control experiments were performed as described without test compound, or with cycloheximide as a test compound.

Assay [1] deals with Cotton Pellet Granuloma in Rats. The assay is described as follows: Inhibition of carrageenin cotton pellet granuloma in rats. Format: in vivo, rat (Wistar). Conditions: 30 mg/kg, p.o. × 5. The protocol: The implantation of carrageenin impregnated cotton pellets results in production of large, well-defined granuloma which are easily dissected. The potency of the compounds are assessed by measuring the reduction in granuloma tissue formation.
Cotton wool pellets weighing 40 mg were used for sterilization.
Pellets were dried overnight under a lamp. The pellets in the weight range of 42-44 mg were selected.
Rats (in groups of 6, male or female, Charles River, Wistar, weighing 140-150 g) were anaesthetized with ether. The back was shaved and cleaned; swabbed with alcohol and one centimeter incision was made in the lower midback. A small channel was made bilaterally using a blunt forceps and one cotton pellet placed in each channel. Air from the incision was removed and the wound was stitched. […] Three hours after the administration of the last dose on day 7, animals were sacrificed. The pellets were removed by cutting the skin along the dorsal midline and peeling the skin away from the bodywall in both lateral directions. The pellets were weighed and then placed in drying oven at 140° C. overnight. The dry weights were then recorded and the amount of granuloma was assessed by subtracting the original pellet weight from wet weights and dry weights. The data was evaluated using the difference of left and right weights (cf. Table 4).

Assay [2] relates to experimental allergic encephalomyelitis (EAE) in guinea pigs. Kind of assay: Experimental allergic encephalomyelitis (EAE) in guinea pigs. In kind it is in vivo, guinea pig. The settings on record: 100 mg/kg p.o. once daily for 10 days. The text has this:
This method permits the evaluation of the potential of the test compound in preventing the development of an autoimmune disorder leading to demyelination in the guinea pigs which can be equated to multiple sclerosis disease in humans. EAE is a reproducible chronic inflammatory autoimmune disease of the central nervous system in which an animal is immunized with either a homologous or heterologous extract of the whole brain and spinal cord, which contains the basic myelin protein together with Freund's Complete Adjuvant (FCA). A pathological condition would set in during ten to twenty days following immunization, which is characterized by weight loss, abnormal gait, mild to severe ataxia, paraparesis and moribund state leading to death. The potential of the test compounds to prevent this autoimmune condition was evaluated by observing the severity of the disease and mortality in comparison with untreated and hydrocortisone (standard drug) treated animals.
Guinea pigs (200-300 g) were randomly distributed into groups of 10 each after receiving 0.075 ml of it brain and spinal cord extract in FCA intradermally on the back and 0.050 ml intrapedally in one hind paw. Compound 9 of Table 2 was administered orally at 3 mg/kg once daily for 10 days. The standard compound was administered 100 mg/kg p.o. once daily for 10 days. The weights of the animals were noted every day. Eight days after the induction of the disease, the animals were rated regularly for the severity of the disease and mortality was monitored.

The test system of assay [3] is adjuvant arthritis in rats. Kind of assay: Adjuvant-induced arthritis in rats. Format: in vivo, rat (female Wistar). The settings on record: 30 mg/kg orally once every day for 12 days, compared to control.
Where [4] appears, read: Homo sapiens, read-out: IL-1 Rel. Inhib.

Where a name gives a salt, the structure may show the parent alone.

For the molecule `COc1cc(OC)c([C@H]2CCCC[C@@H]2OC(=O)CN)c(O)c1C(=O)/C=C/c1cccc(Br)c1` [Compound 6 of Table 2, trans-(+)-2-[4,6-Dimethoxy-2-hydroxy-3-(3-(3-bromophenyl)prop-2-(E)-enoyl)phenyl]cyclohexyl-2-amino acetate hydrochloride monohydrate], the inhibition at 1 µM with IL-1 (setting [4]) was 88%. Take `COc1ccc(CCC(=O)c2c(OC)cc(OC)c([C@@H]3CCCC[C@H]3OC(=O)CN)c2O)cc1OC` (relative stereo) [Compound 19 of Table 2, trans-(+/-)-1-[4,6-Dimethoxy-2-hydroxy-3-(2-(β-amino)acetoxy)cyclohexyl]phenyl-(3-(3,4-dimethoxy)phenyl)propanone hydrochloride monohydrate]: in the assay with IL-1 (setting [4]), the inhibition at 10 µM came to 51%. Take `COc1cc(OC)c([C@@H]2CCCC[C@H]2OC(=O)CN(C)C)c(O)c1C(=O)/C=C/c1cccc(Br)c1` (relative stereo) [Compound 2 of Table 2]: the inhibition at 17 µM in the assay with IL-1 (setting [4]) is 50%. In the case of `COc1cc(OC)c([C@@H]2CCCC[C@H]2OC(=O)CN)c(O)c1C(=O)/C=C/c1cccc(Br)c1` (relative stereo) [Compound 3 of Table 2, trans-(+/-)-2-[4,6-Dimethoxy-2-hydroxy-3-(3-(3-bromophenyl)prop-2-(E)-enoyl)phenyl]cyclohexyl-2-amino acetate hydrochloride monohydrate], the inhibition at 17 µM in the assay with IL-1 (setting [4]) turned out to be 63%.

In the case of `COc1cc(OC)c([C@H]2CCCC[C@@H]2O)c(O)c1C(=O)/C=C/c1cccc(Br)c1` [Compound 15 of Table 2, trans-(+)-2-[4,6-Dimethoxy-2-hydroxy-3-(3-(3-bromophenyl))prop-2-(E)-enoyl]phenylcyclohexanol], in the assay with IL-1 (setting [4]), the inhibition at 0.3 µM stood at 50%.

On to `COc1cc(OC)c([C@@H]2CCCC[C@H]2O)c(O)c1C(=O)/C=C/c1cc(C)ccc1C` (relative stereo) [Compound 21 of Table 2, trans-(+/-)-2-[4,6-Dimethoxy-2-hydroxy-3-(3-(2,5-dimethylphenyl))prop-2-(E)-enoyl]phenylcyclohexanol monohydrate], for which the inhibition at 10 µM in the assay with IL-1 (setting [4]) was determined as 96%. `COc1cc(OC)c(C2CCCCC2OC(=O)[C@H](C)N)c(O)c1C(=O)/C=C/c1cccc(Br)c1` (mixture of isomers) [Compound 7 of Table 2, trans-(+/-)-2-[4,6-Dimethoxy-2-hydroxy-3-(3-(3-bromophenyl)prop-2-(E)-enoyl)phenyl]cyclohexyl-2-(S)-amino propanoate]: the inhibition at 1 µM in the assay on IL-1 (setting [4]) is 35%. Still for that read-out and setting: next, `COc1cc(OC)c([C@@H]2CCCC[C@H]2OC(=O)CN)c(O)c1C(=O)/C=C/c1cccc(Br)c1` [Compound 5 of Table 2, trans-(-)-2-[4,6-Dimethoxy-2-hydroxy-3-(3-(3-bromophenyl)prop-2-(E)-enoyl)phenyl]cyclohexyl-2-amino acetate hydrochloride monohydrate]: 95%. As for `COc1cc(OC)c([C@@H]2CCCC[C@H]2OC(=O)CN2CCCCC2)c(O)c1C(=O)/C=C/c1cccc(Br)c1` (relative stereo) [Compound 4 of Table 2], the inhibition at 16 µM with IL-1 (Homo sapiens, 16 μM, read-out: IL-1 Rel. Inhib.) came to 43%.

As to `COc1cc(OC)c([C@@H]2CCCC[C@H]2O)c(O)c1C(=O)/C=C/c1cccc(C)c1` (relative stereo) [Compound 20 of Table 2], the inhibition at 10 µM in the assay on IL-1 (setting [4]) is 49%. In the case of `COc1cc(/C=C/C(=O)c2c(OC)cc(OC)c([C@@H]3CCCC[C@H]3O)c2O)cc(Br)c1OC` (relative stereo) [Compound 26 of Table 2], in the assay on IL-1 (Homo sapiens, 9.5 μM, read-out: IL-1 Rel. Inhib.), the inhibition at 9.5 µM is 50%. In the case of `COc1cc(OC)c([C@H]2CCCC[C@H]2O)c(O)c1C(=O)/C=C/c1cccc(Br)c1` (relative stereo) [Compound 11 of Table 2, cis-(+/-)-2-[4,6-Dimethoxy-2-hydroxy-3-(3-(3-bromophenyl))prop-2-(E)-enoyl]phenylcyclohexanol], the inhibition at 10.8 µM in the assay with IL-1 (Homo sapiens, 10.8 μM, read-out: IL-1 Rel. Inhib.) amounted to 90%.

Take `COc1ccc(C(=O)/C=C/c2cccc(Br)c2)c(O)c1[C@@H]1CCCC[C@H]1O` (racemic) [Compound 16 of Table 2, trans-(+/-)-2-[6-Methoxy-2-hydroxy-3-(3-(3-bromophenyl))prop-2-(E)-enoyl]phenylcyclohexanol]: the “IL-1 Rel. Inhib.” value with IL-1 (11.6 μM) came out at 81%. For `COc1cc(OC)c([C@@H]2CCCC[C@H]2OC(C)=O)c(O)c1C(=O)/C=C/c1cccc(Br)c1` (relative stereo) [Compound 1 of Table 2], in the assay on IL-1 (setting [4]), the inhibition at 10 µM turned out to be 41%. Turning to `COc1ccc([C@@H]2CCCC[C@H]2O)c(O)c1C(=O)/C=C/c1cccc(Br)c1.COc1ccc([C@@H]2CCCC[C@H]2O)c(O)c1C(=O)/C=C/c1cccc(Br)c1.O` (racemic) [Compound 18 of Table 2, trans-(+/-)-2-[2-Hydroxy-4-methoxy-3-(3-(3-bromophenyl))prop-2-(E)-enoyl)phenylcyclohexanol hemihydrate], the “IL-1 Rel. Inhib.” value in the assay with IL-1 (5 μM) is reported as 71%. In the case of `COc1cc(OC)c([C@@H]2CCCC[C@H]2O)c(O)c1C(=O)CCc1cccc(Br)c1` (relative stereo) [Compound 12 of Table 2], in the assay on IL-1 (Homo sapiens, 10.5 μM, read-out: IL-1 Rel. Inhib.), the inhibition at 10.5 µM turned out to be 26%. In the case of `COc1cc(O)c(C(=O)/C=C/c2cccc(Br)c2)c(OC)c1[C@@H]1CCCC[C@H]1O` (racemic) [Compound 17 of Table 2, trans-(+/-)-2-[2,6-Dimethoxy-4-hydroxy-3-(3-(3-bromophenyl))prop-2-(E)-enoyl]phenylcyclohexanol], the “IL-1 Rel. Inhib.” value in the assay on IL-1 (10.8 μM) turned out to be 71%. Regarding `COc1cc(OC)c(C2CCCCC2)c(O)c1C(=O)/C=C/c1ccc(Cl)cc1` [Compound 22 of Table 2], the inhibition at 12 µM in the assay on IL-1 (Homo sapiens, 12 μM, read-out: IL-1 Rel. Inhib.) was determined as 30%. Turning to `COc1cc(OC)c([C@@H]2CCCC[C@H]2O)c(O)c1C(=O)/C=C/c1cccc(Br)c1` [Compound 14 of Table 2, trans-(-)-2-[4,6-Dimethoxy-2-hydroxy-3-(3-(3-bromophenyl))prop-2-(E)-enoyl]phenylcyclohexanol], the inhibition at 0.3 µM with IL-1 (setting [4]) came to 50%. Take `C[C@]12CCC(=O)C=C1CC[C@@H]1[C@@H]2[C@@H](O)C[C@@]2(C)[C@H]1CC[C@]2(O)C(=O)CO` [Hydrocortisone, reference compound]: in assay [1], the “% Inhibition of granuloma, Dry wt.” value came to 37.5% and the “% Inhibition of granuloma, Wet wt.” value worked out at 20.5%. For the same molecule, in assay [2], the “reduction in the mortality” value came out at 21%. Take `COc1cc(OC)c([C@@H]2CCCC[C@H]2O)c(O)c1C(=O)/C=C/c1cccc(N)c1` (relative stereo) [Compound 28 of Table 2]: the inhibition at 1 µM in the assay with IL-1 (setting [4]) came to 33%. Take `COc1cc(OC)c([C@@H]2CCCC[C@H]2O)c(O)c1C(=O)/C=C/c1cccc(Br)c1` (relative stereo) [Compound 6 of Table 1]: the “reduction in the uninjected paw volume” value in assay [3] is listed as “very slight reduction”.
